Measurements taken from ChEMBL document CHEMBL3351448, “Discovery of (7-aryl-1,5-naphthyridin-2-yl)ureas as dual inhibitors of ERK2 and Aurora B kinases with antiproliferative activity against cancer cells” (Bioorg Med Chem Lett, 2014).
pIC50: −log10 of the molar value.

What was measured:
[1] = biological target: Tyrosine-protein kinase ABL1 (Homo sapiens, UniProt P00519); test: Inhibition of c-Abl (unknown origin)
[2] = biological target: Voltage-gated inwardly rectifying potassium channel KCNH2 (Homo sapiens, UniProt Q12809); test: Binding affinity to human ERG
[3] = biological target: Serine/threonine-protein kinase pim-1 (Homo sapiens, UniProt P11309); test: Inhibition of PIM1 (unknown origin)
[4] = Antiproliferative activity against human HCT116 cells; type: functional, cell-based; settings: HCT-116
MDA-MB-468 = test: Antiproliferative activity against human MDA-MB-468 cells; type: functional, cell-based
[5] = biological target: Vascular endothelial growth factor receptor 2 (Homo sapiens, UniProt P35968); test: Inhibition of KDR (unknown origin)
[6] = Efflux ratio in human Caco2 cells in presence of 1% BSA; type: ADME, cell-based; settings: Caco-2
[7] = biological target: High affinity nerve growth factor receptor (Homo sapiens, UniProt P04629); test: Inhibition of TrkA (unknown origin)
[8] = Solubility in PBS buffer at pH 7.4 in presence of 1% BSA; type: physicochemical; settings: PBS buffer with 1% BSA
[9] = Permeability from apical to basolateral side in human Caco2 cells in presence of 1% BSA; type: ADME, cell-based; settings: Caco-2, read-out: permeability
[10] = Antiproliferative activity against human U87MG cells; type: functional, cell-based, U-87MG ATCC; settings: U-87 MG
[11] = biological target: Tyrosine-protein kinase Yes (Homo sapiens, UniProt P07947); test: Inhibition of YES (unknown origin)
[12] = Stability in mouse plasma assessed as parent compound remaining after 6 hrs; type: ADME, cell-free; settings: read-out: Stability
[13] = Stability in mouse liver microsomes assessed as parent compound remaining after 1 hr; type: ADME; settings: read-out: Stability
[14] = biological target: Homeodomain-interacting protein kinase 1 (Homo sapiens, UniProt Q86Z02); test: Inhibition of HIPK1 (unknown origin)
[15] = Chromatographic hydrophobicity index, CHI of the compound by RP-HPLC method; type: physicochemical
[16] = Permeability from basolateral to apical side in human Caco2 cells in presence of 1% BSA; type: ADME, cell-based; settings: Caco-2, read-out: permeability
Cytochrome P450 3A4 = Cytochrome P450 3A4 (Homo sapiens, UniProt P08684); test: Inhibition of CYP3A4 (unknown origin); type: ADME
[17] = Lipophilicity, logD of the compound at pH 7.4 by RP-HPLC method based chromatographic hydrophobicity index determination; type: physicochemical; settings: buffer
[18] = biological target: Mitogen-activated protein kinase 1 (Homo sapiens, UniProt P28482); test: Inhibition of ERK2 (unknown origin)
A549 = test: Antiproliferative activity against human A549 cells; type: functional, cell-based
[19] = Antiproliferative activity against human PC3 cells; type: functional, cell-based; settings: PC-3

Tyrosine-protein kinase Yes, sequence (P07947 whole entry): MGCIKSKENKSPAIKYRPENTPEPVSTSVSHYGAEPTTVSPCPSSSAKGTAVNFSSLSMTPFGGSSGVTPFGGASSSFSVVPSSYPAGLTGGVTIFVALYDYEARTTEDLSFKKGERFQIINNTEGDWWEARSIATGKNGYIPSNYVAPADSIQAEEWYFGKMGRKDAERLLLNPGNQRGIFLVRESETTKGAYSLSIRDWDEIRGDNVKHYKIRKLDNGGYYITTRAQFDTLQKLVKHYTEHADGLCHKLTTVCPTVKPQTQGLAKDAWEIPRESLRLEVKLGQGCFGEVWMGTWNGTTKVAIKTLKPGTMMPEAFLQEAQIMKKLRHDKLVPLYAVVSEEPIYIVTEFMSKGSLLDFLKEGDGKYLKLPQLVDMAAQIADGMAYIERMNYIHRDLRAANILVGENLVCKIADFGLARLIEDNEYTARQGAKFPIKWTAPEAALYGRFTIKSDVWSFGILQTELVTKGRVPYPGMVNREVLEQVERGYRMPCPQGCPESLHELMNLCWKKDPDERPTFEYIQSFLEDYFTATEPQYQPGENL
Serine/threonine-protein kinase pim-1, sequence (P11309 whole entry): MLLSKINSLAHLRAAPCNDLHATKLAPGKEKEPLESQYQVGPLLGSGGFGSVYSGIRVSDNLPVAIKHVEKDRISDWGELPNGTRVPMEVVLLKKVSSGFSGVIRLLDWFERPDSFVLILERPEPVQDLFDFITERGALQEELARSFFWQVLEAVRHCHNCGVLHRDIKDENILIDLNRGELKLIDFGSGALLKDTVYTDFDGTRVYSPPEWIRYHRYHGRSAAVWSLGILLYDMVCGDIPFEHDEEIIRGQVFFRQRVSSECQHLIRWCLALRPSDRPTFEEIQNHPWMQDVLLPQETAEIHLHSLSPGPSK
High affinity nerve growth factor receptor, sequence (P04629 whole entry): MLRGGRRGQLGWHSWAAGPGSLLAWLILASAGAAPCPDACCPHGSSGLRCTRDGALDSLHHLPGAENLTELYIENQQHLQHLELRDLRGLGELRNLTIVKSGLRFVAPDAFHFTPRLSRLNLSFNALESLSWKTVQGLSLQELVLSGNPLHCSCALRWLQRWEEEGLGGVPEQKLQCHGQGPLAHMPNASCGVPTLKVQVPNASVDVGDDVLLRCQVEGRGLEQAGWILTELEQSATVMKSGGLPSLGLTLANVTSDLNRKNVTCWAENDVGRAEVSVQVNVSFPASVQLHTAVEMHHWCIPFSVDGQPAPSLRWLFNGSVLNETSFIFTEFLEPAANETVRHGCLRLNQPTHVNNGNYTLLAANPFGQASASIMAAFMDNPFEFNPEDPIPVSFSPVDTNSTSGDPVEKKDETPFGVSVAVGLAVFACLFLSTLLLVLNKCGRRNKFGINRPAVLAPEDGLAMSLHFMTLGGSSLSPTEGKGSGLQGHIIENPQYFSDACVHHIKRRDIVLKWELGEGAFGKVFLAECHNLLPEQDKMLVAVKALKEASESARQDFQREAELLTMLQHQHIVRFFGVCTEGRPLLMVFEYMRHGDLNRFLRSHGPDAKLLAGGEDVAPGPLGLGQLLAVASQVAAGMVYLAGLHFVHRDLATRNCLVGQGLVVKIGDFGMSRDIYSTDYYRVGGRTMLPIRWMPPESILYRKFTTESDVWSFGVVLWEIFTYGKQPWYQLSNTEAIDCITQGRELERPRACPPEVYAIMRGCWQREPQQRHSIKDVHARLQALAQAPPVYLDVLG
Homeodomain-interacting protein kinase 1, sequence (Q86Z02 whole entry): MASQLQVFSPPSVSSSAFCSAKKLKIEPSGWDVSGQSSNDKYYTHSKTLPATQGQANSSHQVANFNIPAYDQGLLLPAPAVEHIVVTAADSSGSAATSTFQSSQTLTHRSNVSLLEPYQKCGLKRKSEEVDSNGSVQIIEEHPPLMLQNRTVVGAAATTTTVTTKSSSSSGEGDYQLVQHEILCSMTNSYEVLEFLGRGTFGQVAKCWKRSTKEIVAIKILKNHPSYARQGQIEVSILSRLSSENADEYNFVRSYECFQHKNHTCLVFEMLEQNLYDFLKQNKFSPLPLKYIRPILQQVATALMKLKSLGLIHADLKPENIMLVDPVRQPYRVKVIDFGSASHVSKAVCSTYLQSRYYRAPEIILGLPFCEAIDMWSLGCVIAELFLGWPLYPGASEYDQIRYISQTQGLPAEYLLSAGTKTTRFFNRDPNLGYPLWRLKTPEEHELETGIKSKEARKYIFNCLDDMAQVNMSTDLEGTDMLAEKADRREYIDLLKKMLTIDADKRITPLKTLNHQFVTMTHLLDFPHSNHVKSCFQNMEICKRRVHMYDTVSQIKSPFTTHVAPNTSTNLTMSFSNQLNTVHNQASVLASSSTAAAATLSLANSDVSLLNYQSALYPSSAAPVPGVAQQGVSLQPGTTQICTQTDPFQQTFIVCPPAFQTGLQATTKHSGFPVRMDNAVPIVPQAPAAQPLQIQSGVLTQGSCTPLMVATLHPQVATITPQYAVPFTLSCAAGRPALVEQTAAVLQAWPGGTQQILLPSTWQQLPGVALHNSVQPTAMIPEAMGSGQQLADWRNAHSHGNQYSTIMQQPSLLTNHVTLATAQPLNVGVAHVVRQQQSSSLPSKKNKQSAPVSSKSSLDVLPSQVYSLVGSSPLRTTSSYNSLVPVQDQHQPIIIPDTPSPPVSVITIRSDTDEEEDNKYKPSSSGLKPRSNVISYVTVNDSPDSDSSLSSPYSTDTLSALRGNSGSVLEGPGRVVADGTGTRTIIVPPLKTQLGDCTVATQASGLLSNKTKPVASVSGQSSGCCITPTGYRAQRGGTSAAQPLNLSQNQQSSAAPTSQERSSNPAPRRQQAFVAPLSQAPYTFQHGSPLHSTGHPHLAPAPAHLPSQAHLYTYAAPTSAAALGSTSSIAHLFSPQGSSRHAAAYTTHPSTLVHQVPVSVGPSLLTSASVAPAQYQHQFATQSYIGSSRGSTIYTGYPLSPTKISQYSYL
Vascular endothelial growth factor receptor 2, sequence (P35968 whole entry): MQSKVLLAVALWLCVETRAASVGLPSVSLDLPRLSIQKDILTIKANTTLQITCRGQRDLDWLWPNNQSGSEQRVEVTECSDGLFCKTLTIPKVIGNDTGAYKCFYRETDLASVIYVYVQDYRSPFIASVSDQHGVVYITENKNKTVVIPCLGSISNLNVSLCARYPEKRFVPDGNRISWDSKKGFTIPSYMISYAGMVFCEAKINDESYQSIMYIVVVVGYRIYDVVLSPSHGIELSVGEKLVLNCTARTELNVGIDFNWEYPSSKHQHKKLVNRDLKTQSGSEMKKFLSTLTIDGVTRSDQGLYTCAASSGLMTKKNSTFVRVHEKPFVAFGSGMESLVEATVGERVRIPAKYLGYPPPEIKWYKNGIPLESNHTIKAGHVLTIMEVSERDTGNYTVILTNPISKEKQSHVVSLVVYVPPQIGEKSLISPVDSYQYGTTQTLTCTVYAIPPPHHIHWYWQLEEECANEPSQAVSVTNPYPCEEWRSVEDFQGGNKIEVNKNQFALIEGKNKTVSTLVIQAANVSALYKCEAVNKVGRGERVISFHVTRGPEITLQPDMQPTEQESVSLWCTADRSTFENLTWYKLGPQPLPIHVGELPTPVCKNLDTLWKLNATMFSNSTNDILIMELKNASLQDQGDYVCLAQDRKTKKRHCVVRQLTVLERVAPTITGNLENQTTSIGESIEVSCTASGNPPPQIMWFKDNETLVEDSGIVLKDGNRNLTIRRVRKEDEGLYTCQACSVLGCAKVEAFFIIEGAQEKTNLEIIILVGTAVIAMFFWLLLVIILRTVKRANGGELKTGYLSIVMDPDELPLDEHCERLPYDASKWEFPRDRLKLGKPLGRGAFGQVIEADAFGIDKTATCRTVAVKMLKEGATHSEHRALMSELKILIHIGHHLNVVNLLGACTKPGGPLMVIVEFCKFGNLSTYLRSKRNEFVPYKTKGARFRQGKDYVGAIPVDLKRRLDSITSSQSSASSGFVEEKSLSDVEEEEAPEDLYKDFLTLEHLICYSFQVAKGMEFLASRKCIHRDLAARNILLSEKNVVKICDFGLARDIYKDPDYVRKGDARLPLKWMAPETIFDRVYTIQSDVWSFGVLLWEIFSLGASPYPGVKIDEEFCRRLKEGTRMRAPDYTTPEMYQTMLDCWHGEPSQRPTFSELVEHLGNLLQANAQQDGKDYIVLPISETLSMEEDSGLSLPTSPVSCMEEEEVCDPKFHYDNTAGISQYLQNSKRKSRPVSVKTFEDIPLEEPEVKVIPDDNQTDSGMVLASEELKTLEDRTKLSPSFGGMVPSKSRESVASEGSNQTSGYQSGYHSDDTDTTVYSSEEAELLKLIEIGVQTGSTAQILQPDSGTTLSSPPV
Mitogen-activated protein kinase 1, sequence (P28482 whole entry): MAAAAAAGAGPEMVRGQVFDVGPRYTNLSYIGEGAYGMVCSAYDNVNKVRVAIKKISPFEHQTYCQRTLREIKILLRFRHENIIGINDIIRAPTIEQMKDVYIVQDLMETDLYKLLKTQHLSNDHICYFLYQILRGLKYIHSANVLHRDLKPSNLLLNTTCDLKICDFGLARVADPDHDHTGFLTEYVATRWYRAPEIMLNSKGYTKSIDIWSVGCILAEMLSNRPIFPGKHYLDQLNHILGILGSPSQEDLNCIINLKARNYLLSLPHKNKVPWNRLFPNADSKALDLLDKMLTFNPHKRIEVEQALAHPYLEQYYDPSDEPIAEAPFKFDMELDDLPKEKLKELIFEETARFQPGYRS

SMILES: Cn1cc(-c2cnc3ccc(NC(=O)NCCc4ccccc4)nc3c2)cn1
- pIC50 [1]: < 4.00
- INH [2]: > 60 µM
- pIC50 [3]: 4.49
- pIC50 [4]: 5.92
- pIC50 (MDA-MB-468): 5.74
- pIC50 [5]: < 4.00
- efflux ratio [6]: 0.45
- pIC50 [7]: 4.90
- solubility [8]: 3.9 µM
- Papp A→B [9]: 64 ×10⁻⁶ cm/s
- pIC50 [10]: < 4.30
- pIC50 [11]: 4.57
- remaining at 6 h [12]: 96.7%
- remaining at 1 h [13]: 81.1%
- pIC50 [14]: < 4.00
- CHI [15]: 71.6
- Papp B→A [16]: 29 ×10⁻⁶ cm/s
- INH (Cytochrome P450 3A4): > 100 µM
- chromatographic logD [17]: 2.3

SMILES: Cn1cc(-c2cnc3c(NC(=O)NC(C)(C)C)ccnc3c2)cn1
- pIC50 [18]: 4.50

SMILES: Cn1cc(-c2cnc3ccc(NC(=O)NC(C)(C)C)nc3c2)cn1
- pIC50 (A549): 6.00
- pIC50 [1]: 5.22
- pIC50 [3]: < 4.00
- pIC50 [4]: 6.19
- pIC50 (MDA-MB-468): 5.71
- pIC50 [5]: < 4.00
- pIC50 [7]: 5.35
- pIC50 [10]: < 4.30
- pIC50 [11]: 5.10
- pIC50 [14]: < 4.00
- CHI [15]: 76.1
- pIC50 [19]: 6.17
- chromatographic logD [17]: 2.5

SMILES: Cn1cc(-c2cnc3ccc(NC(=O)NCc4ccccc4)nc3c2)cn1
- pIC50 (A549): < 4.30
- pIC50 [1]: < 4.00
- pIC50 [3]: < 4.50
- pIC50 [4]: 6.72
- pIC50 (MDA-MB-468): < 4.30
- pIC50 [5]: < 4.00
- pIC50 [7]: < 4.00
- pIC50 [10]: < 4.30
- pIC50 [11]: < 4.00
- pIC50 [14]: < 4.00
- CHI [15]: 69.4
- pIC50 [19]: < 4.30
- chromatographic logD [17]: 2.2

SMILES: COc1cc(-c2cnc3ccc(NC(=O)NC(C)(C)C)nc3c2)ccc1O
- pIC50 (A549): 4.85
- pIC50 [1]: < 4.00
- pIC50 [3]: < 4.00
- pIC50 [4]: 5.34
- pIC50 (MDA-MB-468): 5.41
- pIC50 [5]: < 4.00
- pIC50 [7]: 4.09
- pIC50 [10]: 5.01
- pIC50 [11]: 4.37
- pIC50 [14]: < 4.00
- CHI [15]: 79.3
- pIC50 [19]: 5.31
- chromatographic logD [17]: 2.7

SMILES: Cn1cc(-c2cnc3ccc(NC(=O)Nc4ccccc4)nc3c2)cn1
- pIC50 (A549): 5.51
- pIC50 [1]: < 4.00
- pIC50 [3]: < 4.50
- pIC50 [4]: 5.86
- pIC50 (MDA-MB-468): 5.88
- pIC50 [5]: < 4.00
- pIC50 [7]: < 4.00
- pIC50 [10]: < 4.30
- pIC50 [11]: < 4.00
- pIC50 [14]: < 4.00
- CHI [15]: 73.3
- pIC50 [19]: 5.86
- chromatographic logD [17]: 2.4

SMILES: COc1ccc(-c2cnc3ccc(NC(=O)NC(C)(C)C)nc3c2)cc1OC
- pIC50 (A549): < 4.30
- pIC50 [1]: < 4.00
- pIC50 [3]: < 4.00
- pIC50 [4]: < 4.30
- pIC50 (MDA-MB-468): < 4.30
- pIC50 [5]: < 4.00
- pIC50 [7]: < 4.00
- solubility [8]: 8.5 µM
- pIC50 [10]: < 4.30
- pIC50 [11]: 4.07
- remaining at 1 h [13]: 70.4%
- pIC50 [14]: < 4.00
- CHI [15]: 88.8
- pIC50 [19]: < 4.30
- chromatographic logD [17]: 3.2

SMILES: CCNC(=O)Nc1ccc2ncc(-c3ccc(OC)c(OC)c3)cc2n1
- pIC50 (A549): < 4.30
- pIC50 [1]: < 4.00
- pIC50 [3]: < 4.00
- pIC50 [4]: 5.36
- pIC50 (MDA-MB-468): 4.66
- pIC50 [5]: < 4.00
- pIC50 [7]: < 4.00
- solubility [8]: 5.7 µM
- pIC50 [10]: < 4.30
- pIC50 [11]: 4.38
- remaining at 1 h [13]: 45.4%
- pIC50 [14]: 4.87
- CHI [15]: 73.3
- pIC50 [19]: < 4.30
- chromatographic logD [17]: 2.4

SMILES: CCNC(=O)Nc1ccc2ncc(-c3ccc(OC)cc3)cc2n1
- pIC50 (A549): < 4.30
- pIC50 [1]: 4.68
- pIC50 [3]: 4.43
- pIC50 [4]: 4.80
- pIC50 (MDA-MB-468): < 4.30
- pIC50 [5]: < 4.00
- pIC50 [7]: < 4.00
- pIC50 [10]: < 4.30
- pIC50 [11]: < 4.00
- pIC50 [14]: < 4.00
- pIC50 [19]: < 4.30
